US6953783B1, “Modulation of gene expression by combination therapy” (MethylGene, Inc., priority 1998, dated 2005)
One block for each compound: values may come before it. d = 2'-deoxy (DNA); m = 2'-O-methyl

Key:
[1] = mammals; cited from earlier work
DNA MeTase protein [2] = test: DNA MeTase protein levels by Western blotting in A549 cells; assay type: cell-based, human; conditions: 20, 40 or 80 nM with lipofectin, 4 h on day 0 and day 1, harvest day 2
Source text: (§1) MG88 was next tested for an ability to inhibit DNA MeTase mRNA in two human neoplastic cells, A549 (human non-small cell lung carcinoma cells) and T24 (human bladder cancer cells). […] MG208 was modified as follows: A equals 2′-deoxyriboadenosine; C equals 2′-deoxyribocytidine; G equals 2′-deoxyriboguanosine; T equals 2′-deoxyribothymidine; A equals riboadenosine; U equals uridine; C equals ribocytidine; and G equals riboguanosine. The underlined bases were 2′-methoxyribose substituted nucleotides. Non-underlined bases indicate deoxyribose nucleosides. The backbone of MG208 consisted of a phosphorothioate linkage between adjoining nucleotides.
The MG88 and MG208 oligonucleotides were diluted to the desired concentration from a 0.1 mM stock solution in the transfection media. Cells were exposed to oligonucleotide plus lipofectin (or lipofectin only) for four hours on day 0 and four hours on day 1 (after each four hour treatment, cells were returned to complete media). On day 2 (i.e., 48 hours after the first treatment on day 0), cells were harvested, whole cell lysates were prepared, and DNA MeTase protein levels were analyzed by Western blotting analysis with a DNA MeTase-specific rabbit polyclonal antibody (generated according to standard techniques of a glutathione S -transferase fusion protein containing the first 10 kDa amino terminus from DNA methyltransferase protein). […]

DNA MeTase protein [3] = test: DNA MeTase protein levels by Western blotting in T24 cells; assay type: cell-based, human; conditions: for reduction in DNA MeTase protein levels: 20, 40 or 80 nM with lipofectin, 4 h on day 0 and day 1, harvest day 2
Source text: as §1
The MG88 and MG208 oligonucleotides were diluted to the desired concentration from a 0.1 mM stock solution in the transfection media. Cells were exposed to oligonucleotide plus lipofectin (or lipofectin only) for four hours on day 0 and four hours on day 1 (after each four hour treatment, cells were returned to complete media). On day 2 (i.e., 48 hours after the first treatment on day 0), cells were harvested, whole cell lysates were prepared, and DNA MeTase protein levels were analyzed by Western blotting analysis with a DNA MeTase-specific rabbit polyclonal antibody (generated according to standard techniques of a glutathione S -transferase fusion protein containing the first 10 kDa amino terminus from DNA methyltransferase protein). […] Equal loading of all lanes was confirmed by blotting for α-actin protein levels with an actin-specific rabbit polyclonal antibody (commercially available from Santa Cruz Biotech., Santa Cruz, Calif.).
(§2) Next, to determine whether de novo methylation and silencing of the re-expressed p16^ink4A gene occurred when DNA MeTase returned to normal levels, T24 cells were transfected for 10 consecutive days with either 40 or 75 nM or MG88 or MG208. […] Cell lysates of the T24 cells transfected for ten days were analyzed by Western blotting analysis for expression of DNA MeTase protein,p16^ink4A protein, and actin protein (as a control for equal loading) 3, 5, and 7 days after MG88 transfection.

p16^ink4A protein = p16^ink4A protein by immunoprecipitation and Western blotting in T24 cells; assay type: cell-based, human; conditions: for induction of expression of p16^ink4A protein: 40 nM or 75 nM, 4 h each day up to 10 days
Source text: The cyclin-dependent kinase inhibitor (CDKI) p16^ink4A regulates the transition from G1 to S-phases of the cell cycle (Serrano et al. (1993) Nature 366: 704-707). Inactivation of p16^ink4A is one of the most frequently observed abnormalities in human cancer (Serrano et al., supra). Transcriptional inactivation and associated hypermethylation of the p16^ink4A promote region have also been observed in virtually all types of cancer (Gonzales-Zulueta et al. (1995) Cancer Res. 55: 4531-4535; Merlo et al. (1995) Nat. Med. 7: 686-692; Costello et al. (1996) Cancer Res. 56: 2405-2410; Lo et al., Cancer Res. 56: 2721-2725). To investigate the effect of specifically reducing cellular DNA MeTase levels on the expression and methylation status of a silenced p16^ink4A gene, T24 human bladder cancer cells that contain a hypermethylated and silenced p16^ink4A gene were transfected with 40 nM or 75 nM MG88 or control oligonucleotide MG208 with 6.25 μg/ml lipofectin for four hours each day for up to 10 consecutive days. On days 3, 5, 8, and 10, p16^ink4A protein levels were then analyzed by immunoprecipitation followed by Western blotting analysis with a p16^ink4A protein-specific antibody (PharMingen). HeLa cells were used as a positive (+) control for p16^ink4A protein expression.
as §2

p16^ink4A promoter = test: Methylation specific PCR and bisulfite genomic sequencing of the p16^ink4A promoter in T24 cells; assay type: cell-based, human; conditions: for demethylation of the p16^ink4A promoter region (MSP): treated 3, 5, 9 or 10 days
Protocol: To identify changes in the methylation status of the p16^ink4A promoter induced by MG88 treatment, methylation specific PCR (MSP) and bisulfite genomic sequencing was performed as previously described ([…] et al. (1994) Nat. Gen. 8: 27-32; Frommer et al. (1991) Proc. Nat. Acad. Sci. USA 89: […]). […] Briefly, the Oncor p16 detection system was used (commercially available from Oncor, Gaithersburg, Md.). PCR was performed in a total volume of 25 μl under the following conditions: 100 ng bisulfate-treated DNA (Oncor),10 mM Tris-HCl, pH 8.3, […], 1.5 mM MgCl2, 250 μM dNTPs, 80 ng of each of the following primers ([NT] sense (SEQ ID NO: 79) and [NT] antisense (SEQ ID NO: 80)) and 1 unit of AmpliTaq Gold (Perkin-Elmer). The denaturation cycle was 95° C. for 12 min followed by 35 cycles at 95° C. for 45 seconds, 60° C. for 45 seconds, and 72° C. for 60 seconds, and an elongation cycle of 72° C. for 10 minutes. the PCR product (5 μl) was analyzed on a 2% agarose gel. The unmethylated (U) and demethylated (D) primers (commercially available from Oncor) were used at the same conditions as the specific primers.

T24 cells = test: T24 cell proliferation during and after treatment (cell counting); assay type: cell-based, human; conditions: for cell proliferation during treatment: days 0-5, relative to lipofectin
Source text: To study the effect of specific inhibition of DNA MeTase on cell growth, cellular proliferation rates were monitored both during the treatment and post treatment periods to determine the duration of the effect. […] During and following treatment, cells were counted. […] To determine whether the transient re-expression of p16^ink4A and growth-inhibitory effects induced by short term treatment with MG88 were due to the expansion of a less affected (less demethylated) population of cells within the treated population, or to rapid inactivation of p16^ink4A after MG88 withdrawal, single cell clones were isolated after treatment. Several MG88 clones were, in fact, p16^ink4A negative, confirming that the MG88 treatment produced a mixed population of p16^ink4A positive and negative cells.

p21^WAF1 = p21^WAF1 protein levels by Western blotting in T24 cells; assay type: cell-based, human; conditions: for p21^WAF1 protein level: 40 nM or 75 nM, 24 or 48 hours
Protocol: Another member of the cyclin-dependent kinase inhibitor (CDKI) family, p21^WAF1, inhibits a wide range of cyclin/CDK complexes involved in G1 and S phase progression (Tam et al. (1994) Cancer Res. 54: 5816-5820; Baghdassarian and French (1996) Hematol. Cell Ther. 88: 313-323; Gotz et al. (1996) Oncogene 13: 391-398). […] To do this, DNA MeTase, p21^WAF1, and α-actin protein levels were measured by Western blotting analysis in T24 cells that had been treated for either 24 hours (i.e., one 4 hour transfection time) or 48 hours (i.e., two […] transfections 24 hours apart) with either 40 nM or 75 nM of either MG88 or MG208.
T24 cells were also treated for 24 hours (i.e., four hour transfection) with lipofectin only, or lipofectin plus 20, 40, or 80 nM of MG88 or MG208. After treatment, cell lysates were prepared and analyzed by Western blotting analysis with α-actin-specific antibody or p21-specific antibody.

human DNA MeTase mRNA = test: Antisense inhibition of DNA MeTase mRNA (screen of phosphorothioate oligonucleotides); assay type: cell-based
Source text: As shown in FIG. 1 the two […] regions were identified to be highly sensitive to antisense inhibition were targeted by MG88 having the sequence [NT] ID NO:1) (this oligonucleotide is targeted to the […] 5'UTR at nucleotides 532 to 513) and MG98 having the sequence [NT] ID NO:2) (this oligonucleotide is targeted to the […] 3'UTR at nucleotides 5218 to 5199). These oligonucleotides were chemically modified as follows: A equals 2'-deoxyriboadenosine; C equals 2'-deoxyribocytidine; G equals 2'-deoxyriboguanosine; T equals 2'-deoxyribothymidine; A equals riboadenosine; U equals uridine; C equals ribocytidine; and G equals riboguanosine. The underlined bases were 2'-methoxyribose substituted nucleotides. Non-underlined bases indicate deoxyribose nucleosides. The backbone of each oligonucleotide consisted of a phosphorothioate linkage between adjoining nucleotides.

p16 tumor suppressor = test: Reactivation of p16 expression in T24 cells, oligonucleotide and/or 5-aza-dC (IP/Western, densitometry); assay type: cell-based, human; conditions: densitometry of FIG. 14 Western, 40 nM oligonucleotide and/or 0.1 μM 5-aza-dC
[4] = tested on: Colo 205 human colon cancer cells; test: Colo 205 tumor growth in nude mice; assay type: in vivo, BALB/c nude mice; conditions: i.v. daily for seven days; 0.5 mg/kg MG98 and/or 0.1 mg/kg 5-aza-dC
thymidylate synthase = conditions: T24 cells; 25 or 50 nM, 72 hours
pRb = test: Western blotting for phosphorylated pRb in T24 cells; assay type: cell-based, human; conditions: T24 cells reactivated to express p16^ink4A after transfection
p21^WAF1 mRNA = test: RNase protection assay for p21 mRNA in T24 cells; assay type: cell-based, human; conditions: 40 nM, 24 or 48 hours
Protocol: Next, to determine if p21^WAF1 was induced at the transcriptional level, RNase protection assay were performed on cells treated with 40 nM of either MG88 or MG208 for either 24 or 48 hours. Total cellular RNA was isolated from the cells and analysed for p21 mRNA, p27 mRNA, and p18 mRNA using the human cell cycle-2 (hcc-2) multiprobe RNase protection kit commercially available from PharMingen, San Diego, Calif.). RNA loading was determined to be equal using the signals from two housekeeping genes, L32 and GAPDH.

[5] = after 10 day treatment with 40 nM

Compound: Nc1ncn([C@@H]2O[C@H](CO)[C@@H](O)[C@H]2O)c(=O)n1 [5-azaC, 5-aza-cytidine]
toxicity of threshold concentrations necessary to inhibit DNA methyltransferase activity [1]: toxic to mammals

Compound: 5′-AACGAT CAG GAC CCT TGUCC-3′ (DNA AACGATCAGGACCCTTGUCC; sugars from the 5' end m4 d12 m4, all phosphorothioate, methylation of C not given here) [MG208, mismatch control oligonucleotide, reference compound]
reduction in DNA MeTase protein levels (DNA MeTase protein [2]): not
reduction in DNA MeTase protein levels (DNA MeTase protein [3]): not
induction of expression of p16^ink4A protein (p16^ink4A protein): not detected
p16^ink4A methylation status (bisulfite sequencing) (p16^ink4A promoter; T24 cells, days 3 and 5 of treatment): no effect on p16^ink4A methylation status
demethylation of the p16^ink4A promoter region (MSP) (p16^ink4A promoter; T24 cells): no effect on methylation of the p16^ink4A gene
cell proliferation during treatment (T24 cells; 75 nM): only minimal growth inhibition
p21^WAF1 protein level (p21^WAF1): neither lipofectin nor MG208 had an effect

IC50 (human DNA MeTase mRNA): 45 nM
Compound: 5′-UUCATG TCA GCC AAG GCC AC-3′ [MG98]
p16 expression, Percentage of HeLa Cell Control (p16 tumor suppressor): 4
tumor volume [4]: showed tumor volume increase

Compound: 5′ GUCUTAAGCTCAACATUCUA 3′ [MG2606, reference compound]
thymidylate synthase protein level compared to lipofectin only (thymidylate synthase): not

Compound: 5′-UUAATG TAA CCT AAG GUCAA-3′ (DNA UUAATGTAACCTAAGGUCAA; sugars from the 5' end m4 d12 m4, all phosphorothioate, methylation of C not given here) [MG207, negative control oligonucleotide]
p16 expression, Percentage of HeLa Cell Control (p16 tumor suppressor): 1

Compound: Nc1ncn([C@H]2C[C@H](O)[C@@H](CO)O2)c(=O)n1 [5-aza-dC, 5-aza-2′-deoxycytidine]
p16 expression, Percentage of HeLa Cell Control (p16 tumor suppressor): 11
tumor volume [4]: showed less tumor volume increase
toxicity of threshold concentrations necessary to inhibit DNA methyltransferase activity [1]: toxic to mammals

Compound: 5′-AAGCAT GAG CAC CGT TCUCC-3′ [MG88]
IC50 (human DNA MeTase mRNA): 40 nM
reduction in DNA MeTase protein levels (DNA MeTase protein [2]): dose-dependent reduction in DNA MeTase protein levels
reduction in DNA MeTase protein levels (DNA MeTase protein [3]): dose-dependent reduction in DNA MeTase protein levels
return of DNA MeTase protein to control levels post-treatment (DNA MeTase protein [3]; [5]): 5 to 7 days
induction of expression of p16^ink4A protein (p16^ink4A protein): detected after 5 days of treatment
p16^ink4A protein level post-treatment (p16^ink4A protein; [5]): barely detectable at day 7 post-treatment
phosphorylated forms of pRb (pRb): decrease in the amount of phosphorylated forms of pRb
demethylated CpG sites of p16^ink4A promoter (bisulfite sequencing) (p16^ink4A promoter; T24 cells, day 5 of treatment, 15 sites in all): 15 CpG sites
re-methylated sites of p16^ink4A promoter (p16^ink4A promoter; T24 cells, three days after cessation of treatment): 13 of 15
demethylation of the p16^ink4A promoter region (MSP) (p16^ink4A promoter; T24 cells): occurred as early as day 3 of MG88 treatment
methylation of p16^ink4A promoter in positive clone C4-5 (p16^ink4A promoter; thirty days after a five day treatment (75 nM)): completely non methylated at all CpG sites evaluated
antiproliferative and cell death effect (T24 cells; 75 nM, 10 consecutive days): significant antiproliferative and cell death inducing effect
cell proliferation during treatment (T24 cells; 75 nM): dramatically inhibited cell proliferation
persistence of inhibition of cell proliferation (T24 cells; after 5 day treatment with 75 nM): approximately one week post-treatment
p21^WAF1 protein level (p21^WAF1): increased directly with the reduction in DNA MeTase
p21^WAF1 protein induction, dose response (p21^WAF1; 20, 40 or 80 nM, 24 hours): induced p21^WAF1 in a dose dependent fashion
p21^WAF1 mRNA (p21^WAF1 mRNA): no increase in p21^WAF1 mRNA

Compound: 5′ UUCATAACCTCAGCATUGUC 3′ [MG2605]
thymidylate synthase protein level compared to lipofectin only (thymidylate synthase): diminished levels of thymidylate synthase protein
